Experimental data taken from patent US20080139520A1, “Altering cholesterol and fat uptake by novel allosteric inhibitors of pancreatic phospholipase A2” (priority 2006, published 2008).
pKd: −log10 of the molar value. Values joined by “and” are separate entries in the source; they are usually repeats but may differ in a detail not shown here. Equal entries are not always repeated.

Tests used:
pig pancreatic IB PLA2 = molecular target: T1, pig pancreatic IB PLA2 (Sus scrofa, UniProt P00592); test: Rate-lowering of hydrolysis of DMPC + 0.05 mole fraction cholate vesicles by pig pancreatic PLA2; type: biochemical
T1 construct: made in house
From the text: (§1) Independent support for selective binding of the rate lowering compounds to a regulatory site on PLA2 comes from the rate-lowering effect of such compounds on the hydrolysis of DMPC vesicles containing 0.05 mole fraction cholate.
(§2) Scores of other compounds in guggul were not active.

human pancreatic IB PLA2 [1] = molecular target: T2, human pancreatic IB PLA2 (Homo sapiens, UniProt P04054); test: Rate-lowering of hydrolysis of DMPC + 0.05 mole fraction cholate vesicles by human pancreatic PLA2; type: biochemical; conditions: 0.03 mole fraction; DMPC + 0.05 mole fraction cholate
T2 construct: gift of Dr. Suren Tatulian (Orlando, Fla.)
From the text: as §1, §2

PLA2 R6M/K10M = PLA2 R6M/K10M (Sus scrofa, UniProt P00592, K32M/R28M); test: Bile salt binding by Trp emission, R6M/K10M PLA2; design: species or system pig; conditions: read-out: KEB
Description: (§3) Fluorescence emission spectrum or time course of the intensity change from tryptophan or the resonance energy transfer probe TMA-DPH were measured in the ratio mode on SLM-Aminco AB2 in a 1 cm cuvette [31, 32] in 1.6 ml stirred buffer containing 1 or 2 μM PLA2 in 10 mM Tris, 5 mM CaCl2 and 20 mM NaCl at pH 8.0 and 24° C. The slit-widths were 4 nm with excitation at 280.
(§4) As shown in [45], the binding of decylsulfate to the R site is accompanied by a modest increase in the emission intensity from Trp-3. […] As summarized in Table 2, the value of KEB depends on the position of Trp, although Hill coefficient remains 1. […] Note that KEB for the EB complex of ΔPLA2 is about 7-fold larger than that for PLA2.

PLA2 K53W/W3F = molecular target: T3, PLA2 K53W/W3F (Sus scrofa, UniProt P00592, R75W/W25F); test: Bile salt binding by Trp emission, K53W/W3F PLA2; design: species or system pig; conditions: read-out: KEB
T3 construct: made in house
Description: as §3, §4

PLA2 R6M = PLA2 R6M (Sus scrofa, UniProt P00592, R28M); test: Bile salt binding by Trp emission, R6M PLA2; design: species or system pig; conditions: read-out: KEB
Description: as §3, §4

PLA2 K87W/W3F = molecular target: T4, PLA2 K87W/W3F (Sus scrofa, UniProt P00592, K109W/W25F); test: Bile salt binding by Trp emission, K87W/W3F PLA2; design: species or system pig; conditions: read-out: KEB
T4 construct: made in house
Description: as §3, §4

PLA2 K10M = PLA2 K10M (Sus scrofa, UniProt P00592, K32M); test: Bile salt binding by Trp emission, K10M PLA2; design: species or system pig; conditions: read-out: KEB
Description: as §3, §4

PLA2 M20W/W3F = molecular target: T5, PLA2 M20W/W3F (Sus scrofa, UniProt P00592, M42W/W25F); test: Bile salt binding by Trp emission, M20W/W3F PLA2; design: species or system pig; conditions: read-out: KEB
T5 construct: made in house
Description: as §3, §4

PLA2 (3W)(WT) = molecular target: T6, PLA2 (3W)(WT) (Sus scrofa, UniProt P00592); test: Bile salt binding by Trp emission, (3W)(WT) PLA2; design: species or system pig; conditions: read-out: KEB
T6 construct: made in house
Description: as §3, §4

WT (wild type) pig PLA2 = molecular target: T7, WT (wild type) pig PLA2 (Sus scrofa, UniProt P00592); test: PLA2 catalyzed hydrolysis of sonicated DMPC vesicles with added bile salt (pH-stat); type: biochemical; conditions: for effect of bile salt on the rate of hydrolysis (monophasic/biphasic): DMPC vesicles, pancreatic PLA2
T7 construct: made in house
Description: Aqueous dispersion of phospholipid was sonicated in a bath type sonicator. Virtually transparent suspension was annealed for at least 4 hours at room temperature before use. Reaction progress for the PLA2 catalyzed hydrolysis of sonicated DMPC (1 mM) vesicles was measured by pH-stat titration (Radiometer) with 1 mM 2-aminopropanediol in 4 ml reaction buffer containing 5 mM CaCl2 for DMPC (or 0.5 mM for DMPM), 1 mM NaCl, […] atmosphere. Reaction was initiated by adding 0.1 μg enzyme in 1-10 μl solution. The pH stat method was also used for monitoring the rate of hydrolysis of DMPM (0.4 mM) vesicles in the presence of polymyxin [27-29], or of the mixed-micelles of POPC with bile salts in 1:2 ratio [13, 30].
Delay before the onset of the stationary phase of the PLA2 catalyzed reaction progress for the hydrolysis of zwitterionic phospholipids has been extensively characterized. […] The apparent rates in FIG. 3 were obtained from the initial slopes of such reaction progress during which <5% of the total substrate is hydrolyzed.
The CMC of the bile salts used in this study range between 0.8 to 5 mM.

PLA2 K10W/W3F = molecular target: T8, PLA2 K10W/W3F (Sus scrofa, UniProt P00592, K32W/W25F); test: Bile salt binding by Trp emission, K10W/W3F PLA2; design: species or system pig; conditions: read-out: KEB
T8 construct: made in house
Description: as §3, §4

PLA2 K56W/W3F = molecular target: T9, PLA2 K56W/W3F (Sus scrofa, UniProt P00592, K78W/W25F); test: Bile salt binding by Trp emission, K56W/W3F PLA2; design: species or system pig; conditions: read-out: KEB
T9 construct: made in house
Description: as §3, §4

PLA2 L19W/W3F = molecular target: T10, PLA2 L19W/W3F (Sus scrofa, UniProt P00592, L41W/W25F); test: Bile salt binding by Trp emission, L19W/W3F PLA2; design: species or system pig; conditions: read-out: KEB
T10 construct: made in house
Description: as §3, §4

PLA2 L2W/W3F = molecular target: T11, PLA2 L2W/W3F (Sus scrofa, UniProt P00592, L24W/W25F); test: Bile salt binding by Trp emission, L2W/W3F PLA2; design: species or system pig; conditions: read-out: KEB
T11 construct: made in house
Description: as §3, §4

PLA2 R6W/W3F = molecular target: T12, PLA2 R6W/W3F (Sus scrofa, UniProt P00592, R28W/W25F); test: Bile salt binding by Trp emission, R6W/W3F PLA2; design: species or system pig; conditions: read-out: KEB
T12 construct: made in house
Description: as §3, §4

PLA2 [2] = molecular target: T13, PLA2 (Sus scrofa, UniProt P00592); test: Quenching of RET signal from TMA-DPH bound to PLA2 by bile salts; type: binding, pig; conditions: 1 μM PLA2 and TMA-DPH, pH 8.0
T13 construct: made in house
Description: as §3

PLA2 [3] = molecular target: T13, PLA2; test: Isothermal calorimetric titration of PLA2 with bile salt; type: binding, pig; conditions: ITC, 8.5 μM PLA2; for pKd: read-out: KEB
Description: ITC titration of PLA2 with <1 mM (below the CMC) bile salt stock solution was carried out on the Microcal calorimeter (model VP-itc) with cell volume of 1.42 ml with stirring at 300 rpm. Successive injections were made every 5 min. Standard software was used for the peak integration. The heat change with the internal calibration associated with the dilution of the titrant in the […] was subtracted from the heat change obtained by the injection of the bile salt in the presence of 8.5 μM PLA2. The net heat change per injection in the presence of PLA2 was integrated to obtain the total heat change as a function of the total added amphiphile concentration.

human pancreatic IB PLA2 [4] = molecular target: T2, human pancreatic IB PLA2; test: Hydrolysis of DMPC vesicles by human IB PLA2 with added bile salt; type: biochemical; conditions: 1 mM DMPC
Description: (§5) Aqueous dispersion of phospholipid was sonicated in a bath type sonicator. Virtually transparent suspension was annealed for at least 4 hours at room temperature before use. Reaction progress for the PLA2 catalyzed hydrolysis of sonicated DMPC (1 mM) vesicles was measured by pH-stat titration (Radiometer) with 1 mM 2-aminopropanediol in 4 ml reaction buffer containing 5 mM CaCl2 for DMPC (or 0.5 mM for DMPM), 1 mM NaCl, and 0.1 mM EDTA at pH 8.0 and 24° C. in the nitrogen purged closed atmosphere. Reaction was initiated by adding 0.1 μg enzyme in 1-10 μl solution. The pH stat method was also used for monitoring the rate of hydrolysis of DMPM (0.4 mM) vesicles in the presence of polymyxin [27-29], or of the mixed-micelles of POPC with bile salts in 1:2 ratio [13, 30].

PLA2 [5] = molecular target: T13, PLA2; test: PLA2 catalyzed hydrolysis of mixed micelles of POPC with bile salts; type: biochemical, pig; conditions: 1 mM POPC, 0.7 mole fraction bile salt
Description: as §5

T7 sequence (P00592 23-146): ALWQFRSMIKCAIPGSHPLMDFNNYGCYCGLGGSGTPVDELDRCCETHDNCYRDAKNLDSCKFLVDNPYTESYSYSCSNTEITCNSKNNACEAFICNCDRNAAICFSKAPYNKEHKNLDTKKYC
T13 sequence (P00592 23-146): as above
T2 sequence (P04054 23-148): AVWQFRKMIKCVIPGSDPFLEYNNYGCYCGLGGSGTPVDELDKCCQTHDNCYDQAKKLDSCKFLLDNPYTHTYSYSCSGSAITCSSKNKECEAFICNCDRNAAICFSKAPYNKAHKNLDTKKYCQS
T1 sequence (P00592 23-146): as the sequence (P00592 23-146) above
PLA2 R6M/K10M, sequence (P00592 23-146 R28M/K32M): as the sequence (P00592 23-146) above, with R6M, K10M counted along it
T4 sequence (P00592 23-146 W25F/K109W): as the sequence (P00592 23-146) above, with W3F, K87W counted along it
PLA2 R6M, sequence (P00592 23-146 R28M): as the sequence (P00592 23-146) above, with R6M counted along it
T8 sequence (P00592 23-146 W25F/K32W): as the sequence (P00592 23-146) above, with W3F, K10W counted along it
PLA2 K10M, sequence (P00592 whole entry K32M): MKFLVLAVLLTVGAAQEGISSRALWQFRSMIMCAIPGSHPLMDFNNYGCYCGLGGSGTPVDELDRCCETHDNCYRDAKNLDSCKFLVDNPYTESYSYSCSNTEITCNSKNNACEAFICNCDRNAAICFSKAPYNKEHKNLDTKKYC
T10 sequence (P00592 23-146 W25F/L41W): as the sequence (P00592 23-146) above, with W3F, L19W counted along it
T12 sequence (P00592 23-146 W25F/R28W): as the sequence (P00592 23-146) above, with W3F, R6W counted along it
T9 sequence (P00592 23-146 W25F/K78W): as the sequence (P00592 23-146) above, with W3F, K56W counted along it
T3 sequence (P00592 23-146 W25F/R75W): as the sequence (P00592 23-146) above, with W3F, R53W counted along it
T6 sequence (P00592 23-146): as the sequence (P00592 23-146) above
T11 sequence (P00592 23-146 L24W/W25F): as the sequence (P00592 23-146) above, with L2W, W3F counted along it
T5 sequence (P00592 23-146 W25F/M42W): as the sequence (P00592 23-146) above, with W3F, M20W counted along it

Q: With `CC(=CCCC(C)C1CCC2(C)C3=CCC4C(C)(C)C(O)CCC4(C)C3CCC12C)C(=O)O` (stereo not drawn) [Masticadienolic acid] as the molecule, how does the “Relative Rate-lowering (%) Activity, pPLA2” value (pig pancreatic IB PLA2; 0.03 mole fraction, DMPC + 0.05 mole fraction cholate) read?
A: Its value is >95%.

Q: What about the “relative effectiveness in lowering the rate with pig pancreatic PLA2” value (pig pancreatic IB PLA2; DMPC vesicles containing 0.05 mole fraction cholate, FIG. 6) of the same molecule?
A: Its value is “effective by another factor of ten”.

Q: What about the “Relative Rate-lowering (%) Activity, hPLA2” value (human pancreatic IB PLA2 [1]) of the same molecule?
A: Its value is 66%.

Q: With `C[C@H](CCC(=O)NCCS(=O)(=O)O)[C@H]1CC[C@H]2[C@@H]3CC[C@@H]4C[C@H](O)CC[C@]4(C)[C@H]3C[C@H](O)[C@]12C` [TDOC, taurodeoxycholate] as the molecule, how does the pKd (PLA2 R6M/K10M) read?
A: The pKd was 5.00.

Q: What about the pKd (PLA2 K53W/W3F) of the same molecule?
A: Its pKd is 4.48.

Q: And the pKd (PLA2 R6M)?
A: Its pKd is < 4.00.

Q: And the pKd (PLA2 K87W/W3F)?
A: The pKd was 5.70.

Q: And the pKd (PLA2 K10M)?
A: Its pKd is < 4.00.

Q: And the pKd (PLA2 M20W/W3F)?
A: Its pKd is 5.70.

Q: What about the pKd (PLA2 (3W)(WT)) of the same molecule?
A: The pKd was 4.52.

Q: What about the “effect of bile salt on the rate of hydrolysis (monophasic/biphasic)” value (“effect of bile salt … (monophasic/biphasic)” below) (WT (wild type) pig PLA2) of the same molecule?
A: The value was “biphasic effect”.

Q: And the pKd (PLA2 K10W/W3F)?
A: Its pKd is 5.00.

Q: And the pKd (PLA2 K56W/W3F)?
A: The pKd was 4.46.

Q: What about the pKd (PLA2 L19W/W3F) of the same molecule?
A: The pKd was 4.36.

Q: And the pKd (PLA2 L2W/W3F)?
A: Its pKd is 4.70.

Q: And the pKd (PLA2 R6W/W3F)?
A: Its pKd is 5.40.

Q: `C[C@H](CCC(=O)NCCS(=O)(=O)O)[C@H]1CC[C@H]2[C@@H]3[C@@H](O)C[C@@H]4C[C@H](O)CC[C@]4(C)[C@H]3CC[C@]12C` [TUDOC, tauroursodeoxycholate] was tested. Which “efficacy to quench RET signal from TMA-DPH bound to PLA2” value (PLA2 [2]) did it give?
A: The value was “most effective”.

Q: What about the pKd (PLA2 [3]) of the same molecule?
A: The pKd was > 5.70.

Q: What about the “effect of bile salt … (monophasic/biphasic)” value (WT (wild type) pig PLA2) of the same molecule?
A: The value was “biphasic effect”.

Q: `C[C@H](CCC(=O)O)[C@H]1CC[C@H]2[C@@H]3[C@@H](O)C[C@@H]4C[C@H](O)CC[C@]4(C)[C@H]3CC[C@]12C` [UDOC, ursodeoxycholate] was tested. Which pKd (PLA2 [3]) did it give?
A: Its pKd is 4.42 to 5.70 and 4.43.

Q: Which results are given for `C[C@H](CCC(=O)O)[C@H]1CC[C@H]2[C@@H]3[C@H](O)C[C@@H]4C[C@H](O)CC[C@]4(C)[C@H]3C[C@H](O)[C@]12C` [cholate, reference compound]?
A: efficacy to quench RET signal from TMA-DPH bound to PLA2 (PLA2 [2]): least effective; heat change on titration of PLA2 (PLA2 [3]): No heat change; peak rate of hydrolysis of DMPC vesicles (WT (wild type) pig PLA2; 1 mM DMPC, 24° C., cholate above 0.04 mM): 140 s⁻¹; effect of bile salt on the rate of hydrolysis (monophasic/biphasic) (WT (wild type) pig PLA2): only a rate increase; effect on rate of hydrolysis of DMPC vesicles by human pancreatic IB PLA2 (human pancreatic IB PLA2 [4]): increases; initial rate of hydrolysis of POPC in mixed micelles (PLA2 [5]): 150 s⁻¹

Q: With `C[C@H](CCC(=O)NCC(=O)O)[C@H]1CC[C@H]2[C@@H]3[C@H](O)C[C@@H]4C[C@H](O)CC[C@]4(C)[C@H]3C[C@H](O)[C@]12C` [glycocholate] as the molecule, how does the “effect of bile salt … (monophasic/biphasic)” value (WT (wild type) pig PLA2) read?
A: Its value is “biphasic effect”.
